Results as given in article PMC5732813, “Novel piplartine-containing ruthenium complexes: synthesis, cell growth inhibition, apoptosis induction and ROS production on HCT116 cells” (Oncotarget, 2017).
Values joined by “and” are separate entries in the source; they are usually repeats but may differ in a detail not shown here. Equal entries are not always repeated.

Assays:
Assay type in all cases: cell-based
[1] = test system: HepG2 (human hepatocellular carcinoma); experiment: Cytotoxic activity, alamar blue assay, HepG2
From the text: (§1) HCT116 (human colon carcinoma), HepG2 (human hepatocellular carcinoma), HSC-3 (human oral squamous cell carcinoma), SCC-4 (human oral squamous cell carcinoma), SCC-9 (human oral squamous cell carcinoma), HL-60 (human promyelocytic leukemia), K-562 (human chronic myelogenous leukemia), B16-F10 (murine melanoma), MRC-5 (human lung fibroblast), WT SV40 MEF (wild-type immortalized mouse embryonic fibroblast) and BAD KO SV40 MEF (BAD gene knockout immortalized mouse embryonic fibroblast) cell lines were obtained from the American Type Culture Collection (ATCC, Manassas, VA, USA) and cultured in RPMI-1640 medium (Gibco-BRL, Gaithersburg, MD, USA) with 10% fetal bovine serum (Life, Carlsbad, CA, USA), 2 mM L-glutamine (Vetec Química Fina, Duque de Caxias, RJ, Brazil) and 50 μg/mL gentamycin (Life, Carlsbad, CA, USA). Adherent cells were collected by treatment with 0.25% trypsin EDTA solution (Gibco-BRL, Gaithersburg, MD, USA). All cell lines were cultured in flasks at 37°C in 5% CO2 and sub-cultured every 3-4 days to maintain exponential growth.
(§2) Cell viability was quantified using the alamar blue assay, according to Ahmed et al.. Cells were inserted in 96-well plates for all experiments (7 x 10^4 cells/mL for adherent cells or 3 x 10^5 cells/mL for suspended cells in 100 μL of medium). […] Negative controls received the vehicle that was used for diluting the compounds tested.

[2] = test system: SCC-9 (human oral squamous cell carcinoma); experiment: Cytotoxic activity, alamar blue assay, SCC-9
From the text: as §1, §2

[3] = test system: K-562 (human chronic myelogenous leukemia); experiment: Cytotoxic activity, alamar blue assay, K-562
From the text: as §1, §2

[4] = test system: BAD KO SV40 MEF (BAD gene knockout immortalized mouse embryonic fibroblast); experiment: Cytotoxic activity, alamar blue assay, BAD KO SV40 MEF; conditions: Mus musculus, Fibroblast, 72 h
[5] = test system: WT SV40 MEF (wild-type immortalized mouse embryonic fibroblast); experiment: Cytotoxic activity, alamar blue assay, WT SV40 MEF; conditions: Mus musculus, Fibroblast, 72 h
HCT116 cells = experiment: Gene expression analysis by qPCR array (TaqMan Array Human Molecular Mechanisms of Cancer); conditions: HCT116, 12 h, DOX 1 μM, PL 10 μM, 1 2.5 μM, 2 5 μM, negative control RQ = 1.0
Method: HCT116 cells were plated in bottles tissue culture (7x10^4 cells/mL). After 12h of incubation with the complexes, total RNA was isolated from the cells using the RNeasy Plus mini kit (Qiagen, Hilden, Germany) according to the manufacturer’s instructions. The RNA was evaluated by fluorimetry (QuBit™, Life Technologies, Camarillo, CA, EUA). RNA reverse transcription was performed using Superscript VILO™ (Invitrogen Corporation, Waltham, MA, USA). A 96-well plate TaqMan® Array Human Molecular Mechanisms of Cancer (ID 4418806, Applied Biosystems™, Foster City, CA, EUA) was used for the gene expression study by qPCR. The reactions were conducted in the ABI ViiA7 (Applied Biosystems™, Foster City, CA, EUA). The cycle conditions comprised 2 min at 50 °C, 20 s at 95 °C, then 40 cycles of 3 s at 95 °C and 30 s at 60 °C. […] The GAPDH, 18S and HPRT1 genes were used for normalization. All experiments were performed in DNase/RNase free conditions.

COc1cc(/C=C/C(=O)N2CCC=CC2=O)cc(OC)c1OC [Piplartine]
IC50 ([1]; Homo sapiens, HepG2, 72 h): 6.3 µM
Selectivity index (SI) ([1]; SI = IC50[MRC-5]/IC50[HepG2]): 2.7
Selectivity index (SI) ([1]; SI = IC50[PBMC]/IC50[HepG2]): 5.4
Selectivity index (SI) ([2]; SI = IC50[MRC-5]/IC50[SCC-9]): 1.0
Selectivity index (SI) ([2]; SI = IC50[PBMC]/IC50[SCC-9]): 2.1
IC50 ([3]; Homo sapiens, K562, 72 h): 18.6 µM
Selectivity index (SI) ([3]; SI = IC50[MRC-5]/IC50[K-562]): 0.9
Selectivity index (SI) ([3]; SI = IC50[PBMC]/IC50[K-562]): 1.8
IC50 [4]: 4 µM
IC50 [5]: 4.5 µM
RQ ABL1 (HCT116 cells): 1.144
RQ AKT1 (HCT116 cells): 1.285
RQ AKT2 (HCT116 cells): 1.068
RQ APC (HCT116 cells): 1.236
RQ BAX (HCT116 cells): 2.160
RQ BCAR1 (HCT116 cells): 0.705
RQ BCL2L1 (HCT116 cells): 0.822
RQ BCL2L11 (HCT116 cells): 1.536
RQ BID (HCT116 cells): 0.528
RQ BRAF (HCT116 cells): 1.512
RQ CASP8 (HCT116 cells): 0.915
RQ CASP9 (HCT116 cells): 1.065
RQ CCND3 (HCT116 cells): 1.144
RQ CCNE1 (HCT116 cells): 1.418
RQ CDC42 (HCT116 cells): 2.542
RQ CDK2 (HCT116 cells): 0.722
RQ CDK4 (HCT116 cells): 0.873
RQ CDKN1A (HCT116 cells): 2.847
RQ CDKN1B (HCT116 cells): 1.545
RQ CRK (HCT116 cells): 0.381
RQ CTNNB1 (HCT116 cells): 1.026
RQ DVL1 (HCT116 cells): 0.913
RQ E2F1 (HCT116 cells): 0.764
RQ ELK1 (HCT116 cells): 0.625
RQ ERBB2 (HCT116 cells): 1.273
RQ FAS (HCT116 cells): 1.371
RQ FGF2 (HCT116 cells): 0.854
RQ GRB2 (HCT116 cells): 1.219
RQ GSK3B (HCT116 cells): 1.249
RQ GUSB (HCT116 cells): 5.2
RQ HRAS (HCT116 cells): 0.928
RQ ITGB1 (HCT116 cells): 0.784
RQ KRAS (HCT116 cells): 0.133
RQ MAPK1 (HCT116 cells): 1.098
RQ MAPK8 (HCT116 cells): 0.887
RQ MAPK14 (HCT116 cells): 1.009
RQ MDM2 (HCT116 cells): 0.901
RQ MYC (HCT116 cells): 0.271
RQ NFKB1 (HCT116 cells): 0.870
RQ NFKB2 (HCT116 cells): 0.818
RQ NRAS (HCT116 cells): 0.600
RQ PIK3CA (HCT116 cells): 0.910
RQ RB1 (HCT116 cells): 1.314
RQ RELA (HCT116 cells): 1.240
RQ RHOA (HCT116 cells): 0.979
RQ SRC (HCT116 cells): 1.076
RQ TCF3 (HCT116 cells): 0.774
RQ TGFB1 (HCT116 cells): 0.947
RQ TGFBR1 (HCT116 cells): 0.545
RQ VEGFA (HCT116 cells): 1.245
RQ BCL2 (HCT116 cells; listed as PL): 1.1 and 1.049
RQ CCND1 (HCT116 cells; listed as PL): 0.7 and 0.669
RQ CDH1 (HCT116 cells; listed as PL): 2.5 and 2.494
RQ CDKN2A (HCT116 cells; listed as PL): 1.6 and 1.575
RQ CYCS (HCT116 cells; listed as PL): 1.0 and 0.954
RQ EGFR (HCT116 cells; listed as PL): 1.2 and 1.173
RQ FADD (HCT116 cells; listed as PL): 0.4 and 0.369
RQ FN1 (HCT116 cells; listed as PL): 2.0 and 1.952
RQ FOS (HCT116 cells; listed as PL): 31.0 and 30.985
RQ FYN (HCT116 cells; listed as PL): 1.7 and 1.675
RQ FZD1 (HCT116 cells; listed as PL): 1.0 and 0.953
RQ IGF1R (HCT116 cells; listed as PL): 2.1 and 2.082
RQ ITGA2B (HCT116 cells; listed as PL): 3.0 and 2.963
RQ ITGAV (HCT116 cells; listed as PL): 1.0 and 0.993
RQ JUN (HCT116 cells; listed as PL): 3.8 and 3.837
RQ KDR (HCT116 cells; listed as PL): 8.3 and 8.270
RQ MAP2K1 (HCT116 cells; listed as PL): 0.8 and 0.759
RQ MAP3K5 (HCT116 cells; listed as PL): 0.6 and 0.609
RQ MAPK3 (HCT116 cells; listed as PL): 1.7 and 1.726
RQ MAX (HCT116 cells; listed as PL): 3.1 and 3.051
RQ NFKBIA (HCT116 cells; listed as PL): 2.0 and 1.989
RQ PIK3R1 (HCT116 cells; listed as PL): 2.4 and 2.352
RQ PTEN (HCT116 cells; listed as PL): 0.5 and 0.501
RQ PTK2 (HCT116 cells; listed as PL): 0.6 and 0.616
RQ PTK2B (HCT116 cells; listed as PL): 2.3 and 2.265
RQ RAC1 (HCT116 cells; listed as PL): 0.7 and 0.731
RQ RAF1 (HCT116 cells; listed as PL): 0.6 and 0.574
RQ SHC1 (HCT116 cells; listed as PL): 0.2 and 0.243
RQ SMAD4 (HCT116 cells; listed as PL): 0.9 and 0.942
RQ SOS1 (HCT116 cells; listed as PL): 0.9 and 0.851
RQ SPP1 (HCT116 cells; listed as PL): 1.3 and 1.338
RQ TGFBR2 (HCT116 cells; listed as PL): 1.2 and 1.177
RQ TP53 (HCT116 cells; listed as PL): 1.2 and 1.182
